Results from PMC8779952, “The First Dimeric Derivatives of the Glycopeptide Antibiotic Teicoplanin” (Pharmaceuticals, 2022).
In brackets after ≈: the same amount, converted by molar mass. Where two headings read alike, the source gives them in different places.

Legend:
Type in all cases: cell-based
[1] = tested on: Bacillus subtilis ATCC 6633
Description: (§1) The antibacterial evaluations were carried out as described in our previous publication. TLC was performed on Kieselgel 60 F254 (Merck) with detection either by immersion in ammonium molybdate–sulfuric acid solution followed by heating or by using Pauly’s reagent for detection. Flash column chromatography was performed using Silica gel 60 (Merck 0.040–0.063 mm).

[2] = tested on: Enterococcus faecalis 15376 VanA; conditions: Enterococcus faecalis 15376 VanA (vanA gene positive, teicoplanin-resistant)
Description: as §1

[3] = tested on: Enterococcus faecalis ATCC 29212
Description: as §1

[4] = tested on: Enterococcus faecalis ATCC 51299 VanB
Description: as §1

[5] = tested on: Staphylococcus aureus MRSA ATCC 33591
Description: as §1

[6] = tested on: Staphylococcus aureus MSSA ATCC 29213
Description: as §1

[7] = tested on: Staphylococcus epidermidis ATCC 35984 biofilm
Description: as §1

[8] = tested on: Staphylococcus epidermidis mecA
Description: as §1

[9] = Enterococcus faecalis ATCC 51299 VanB (vanB gene positive)

Compound | MIC ([1]; ATCC 6633) [µg/mL] | MIC [2] [µg/mL] | MIC ([3]; ATCC 29212) [µg/mL] | MIC ([4]; ATCC 51299) [µg/mL] | MIC ([5]; ATCC 33591) [µg/mL] | MIC ([6]; ATCC 29213) [µg/mL] | MIC ([7]; ATCC 35984) [µg/mL] | MIC ([8]; mecA) [µg/mL] | MIC ([1]; Bacillus subtilis ATCC 6633, minimum inhibitory concentration) [µg/mL] | MIC ([3]; Enterococcus faecalis ATCC 29212) [µg/mL] | MIC [4, 9] [µg/mL] | MIC ([5]; Staphylococcus aureus MRSA ATCC 33591 (methicillin-resistant)) [µg/mL] | MIC ([6]; Staphylococcus aureus MSSA ATCC 29213 (methicillin-sensitive)) [µg/mL] | MIC ([7]; Staphylococcus epidermidis ATCC 35984 biofilm) [µg/mL] | MIC ([8]; Staphylococcus epidermidis mecA (mecA gene expression)) [µg/mL]
CC(=O)N[C@H]1[C@H](O[C@@H]2c3ccc(c(Cl)c3)Oc3cc4cc(c3O)Oc3ccc(cc3Cl)C[C@H]3NC(=O)[C@H](N)c5ccc(O)c(c5)Oc5cc(O)cc(c5)[C@H](NC3=O)C(=O)N[C@H]4C(=O)N[C@H]3C(=O)N[C@@H]2C(=O)N[C@H](C(=O)O)c2cc(O)cc(O)c2-c2cc3ccc2O)O[C@H](CO)[C@@H](O)[C@@H]1O [Compound 3, teicoplanin pseudoaglycone] | 2 (≈ 1.43 µM) | 256 (≈ 183 µM) | 4 (≈ 2.85 µM) | 2 (≈ 1.43 µM) | 1 (≈ 0.713 µM) | 2 (≈ 1.43 µM) | 2 (≈ 1.43 µM) | 1 (≈ 0.713 µM) |  |  |  |  |  |  | 
Teicoplanin [Teico (1)] |  | 256 |  |  |  |  |  |  | 0.5 | 2 | 4 | 0.5 | 0.5 | 2 | 16
CC(=O)N[C@H]1[C@H](O[C@@H]2c3ccc(c(Cl)c3)Oc3cc4cc(c3O)Oc3ccc(cc3Cl)C[C@H]3NC(=O)[C@H](N)c5ccc(O)c(c5)Oc5cc(O)cc(c5)[C@H](NC3=O)C(=O)N[C@H]4C(=O)N[C@H]3C(=O)N[C@@H]2C(=O)N[C@H](C(=O)O)c2cc(O)cc(O[C@H]4O[C@H](CO)[C@@H](O)[C@H](O)[C@@H]4O)c2-c2cc3ccc2O)O[C@H](CO)[C@@H](O)[C@@H]1O [Compound 2] | 2 (≈ 1.28 µM) | 4 (≈ 2.56 µM) | 8 (≈ 5.11 µM) |  | 2 (≈ 1.28 µM) | 4 (≈ 2.56 µM) | 2 (≈ 1.28 µM) | 4 (≈ 2.56 µM) |  |  | 8 (≈ 5.11 µM) |  |  |  | 
